Patent US10738056B2 (Aduro BioTech, Inc., priority 2017, dated 2020)

How the values were obtained:
[1] = target: Human cGAS amino acids 155-522 (Homo sapiens (Human), UniProt Q8N884); test: cGAS biochemical activity assay (ATP remaining, Kinase-Glo Max luminescence); settings: human cGAS 155-522, ATP remaining (Kinase-Glo Max); read-out: cGAS IC50
[2] = system: cGAS/STING pathway in THP1 cells; test: THP1 cell-based cGAS/STING pathway activity assay (IRF-3-linked luciferase reporter); settings: Homo sapiens, THP-1
From the text: A cellular assay can be used to assess the compounds of the invention for their ability to inhibit the cGAS/STING pathway. Cells that express a luciferase-based reporter that is linked to IRF-3 activation are used to determine response as a function of compound concentration. Such an assay is described in Vincent et al., Nature Communications 2017, 8(1):750, doi: 10.1038/s41467-017-00833-9.
A cellular assay can be used to assess the compounds of the invention for their ability to inhibit the cGAS/STING pathway. Cells that express a luciferase-based reporter that is linked to IRF-3 activation are used to determine response as a function of compound concentration. Such an assay is described in Vincent et al., Nature Communications 2017, 8(1):750, doi: 10.1038/s41467-017-00833-9. Compounds of the invention were assessed using similar assay methods in a THP1 cell assay to generate IC50 values as provided in the following Table 16. In this table, activity level “A” indicates an IC50 value less than 20 μM, “B” indicates an IC50 value between 20 and 100 μM, and “C” indicates an IC50 value above the upper limit of the assay (100 μM), or where an IC50 value could not be generated from the data.

Human cGAS amino acids 155-522, sequence (Q8N884 157-522): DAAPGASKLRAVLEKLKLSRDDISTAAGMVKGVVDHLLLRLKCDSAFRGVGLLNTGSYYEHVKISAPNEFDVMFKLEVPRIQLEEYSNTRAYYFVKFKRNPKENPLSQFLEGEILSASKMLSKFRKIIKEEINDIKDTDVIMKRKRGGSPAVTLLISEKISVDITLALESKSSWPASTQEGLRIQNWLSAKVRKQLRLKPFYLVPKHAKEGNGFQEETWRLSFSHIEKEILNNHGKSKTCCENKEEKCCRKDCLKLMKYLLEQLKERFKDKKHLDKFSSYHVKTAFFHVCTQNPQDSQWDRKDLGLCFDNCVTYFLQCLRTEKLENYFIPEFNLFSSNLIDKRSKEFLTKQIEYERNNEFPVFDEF

COc1nc(N)nc2oc(-c3c(C)[nH]c4c(-c5ccccc5)c(C(F)(F)F)nn4c3=O)nc12 [Compound C1174, 6-(5-amino-7-methoxyoxazolo[5,4-d]pyrimidin-2-yl)-5-methyl-3-phenyl-2-(trifluoromethyl)pyrazolo[1,5-a]pyrimidin-7(4H)-one]
IC50 [1]: < 20 µM | IC50 [2]: > 100 µM

COc1cccnc1NC(=O)c1c(C)[nH]c2c(-c3ccccc3)c(C(F)(F)F)nn2c1=O [Compound A1100, N-(3-methoxypyridin-2-yl)-5-methyl-7-oxo-3-phenyl-2-(trifluoromethyl)-4,7-dihydropyrazolo[1,5-a]pyrimidine-6-carboxamide]
IC50 [1]: < 20 µM | IC50 [2]: 20 to 100 µM

COc1cc(N(C)C)cc2oc(-c3c(C)[nH]c4c(-c5ccccc5)c(C(F)(F)F)nn4c3=O)nc12 [Compound C1162, 6-(6-(dimethylamino)-4-methoxybenzo[d]oxazol-2-yl)-5-methyl-3-phenyl-2-(trifluoromethyl)pyrazolo[1,5-a]pyrimidin-7(4H)-one]
IC50 [1]: < 20 µM | IC50 [2]: < 20 µM

Cc1[nH]c2c(-c3ccccc3)c(C(F)(F)F)nn2c(=O)c1-c1nnc(-c2ccco2)o1 [Compound D1007, 6-(5-(furan-2-yl)-1,3,4-oxadiazol-2-yl)-5-methyl-3-phenyl-2-(trifluoromethyl)pyrazolo[1,5-a]pyrimidin-7(4H)-one]
IC50 [1]: > 250 µM | IC50 [2]: 20 to 100 µM

COc1c(Cl)ccc2oc(-c3c(C)[nH]c4c(-c5ccccc5)c(C(F)(F)F)nn4c3=O)nc12 [Compound C1095, 6-(5-chloro-4-methoxybenzo[d]oxazol-2-yl)-5-methyl-3-phenyl-2-(trifluoromethyl)pyrazolo[1,5-a]pyrimidin-7(4H)-one]
IC50 [1]: < 20 µM | IC50 [2]: > 100 µM

Cc1[nH]c2c(-c3ccccc3)c(C(F)(F)F)nn2c(=O)c1-c1nc2c(OCCNS(C)(=O)=O)cccc2o1 [Compound C1066, N-(2-((2-(5-methyl-7-oxo-3-phenyl-2-(trifluoromethyl)-4,7-dihydropyrazolo[1,5-a]pyrimidin-6-yl)benzo[d]oxazol-4-yl)oxy)ethyl)methanesulfonamide]
IC50 [1]: < 20 µM | IC50 [2]: > 100 µM

Cc1[nH]c2c(-c3ccccc3)c(C(F)(F)F)nn2c(=O)c1C(=O)Nc1ccccc1S(=O)(=O)C(C)C [Compound A1051, N-(2-(isopropylsulfonyl)phenyl)-5-methyl-7-oxo-3-phenyl-2-(trifluoromethyl)-4,7-dihydropyrazolo[1,5-a]pyrimidine-6-carboxamide]
IC50 [1]: < 20 µM | IC50 [2]: 20 to 100 µM

CO[C@](c1ccccc1)(c1nnc(-c2c(C)[nH]c3c(-c4ccccc4)c(C(F)(F)F)nn3c2=O)o1)C(F)(F)F [Compound D1029, (R)-5-methyl-3-phenyl-6-(5-(2,2,2-trifluoro-1-methoxy-1-phenylethyl)-1,3,4-oxadiazol-2-yl)-2-(trifluoromethyl)pyrazolo[1,5-a]pyrimidin-7(4H)-one]
IC50 [1]: < 20 µM | IC50 [2]: > 100 µM

COc1ccccc1NC(=O)c1c(C)[nH]c2c(-c3ccccc3)c(C(F)(F)F)nn2c1=O [Compound A1031, N-(2-methoxyphenyl)-5-methyl-7-oxo-3-phenyl-2-(trifluoromethyl)-4,7-dihydropyrazolo[1,5-a]pyrimidine-6-carboxamide]
IC50 [1]: < 20 µM | IC50 [2]: > 100 µM

Cc1[nH]c2c(-c3ccccc3)c(C(F)(F)F)nn2c(=O)c1-c1nnc(N2CCCCC2CN)o1 (stereo not shown) [Compound D1070, 6-(5-(2-(aminomethyl)piperidin-1-yl)-1,3,4-oxadiazol-2-yl)-5-methyl-3-phenyl-2-(trifluoromethyl)pyrazolo[1,5-a]pyrimidin-7(4H)-one]
IC50 [1]: < 20 µM | IC50 [2]: > 100 µM

Cc1[nH]c2c(-c3ccccc3)c(C(F)(F)F)nn2c(=O)c1C(=O)Nc1ccn(C)n1 [Compound A1029, 5-methyl-N-(1-methyl-1H-pyrazol-3-yl)-7-oxo-3-phenyl-2-(trifluoromethyl)-4,7-dihydropyrazolo[1,5-a]pyrimidine-6-carboxamide]
IC50 [1]: < 20 µM | IC50 [2]: 20 to 100 µM

Cc1[nH]c2c(-c3ccccc3)c(C(F)(F)F)nn2c(=O)c1C(=O)Nc1cc(C)n(C)n1 [Compound A1079, N-(1,5-dimethyl-1H-pyrazol-3-yl)-5-methyl-7-oxo-3-phenyl-2-(trifluoromethyl)-4,7-dihydropyrazolo[1,5-a]pyrimidine-6-carboxamide]
IC50 [1]: < 20 µM | IC50 [2]: > 100 µM

Cc1nn2c(=O)c(-c3nc4c(o3)CCCC4)c(C)[nH]c2c1-c1ccccc1 [Compound C1032, 2,5-dimethyl-3-phenyl-6-(4,5,6,7-tetrahydrobenzo[d]oxazol-2-yl)pyrazolo[1,5-a]pyrimidin-7(4H)-one]
IC50 [1]: < 20 µM | IC50 [2]: 20 to 100 µM

Cc1[nH]c2c(-c3ccccc3)c(C#N)nn2c(=O)c1-c1nc2cc(N)ccc2o1 [Compound C1181, 6-(5-aminobenzo[d]oxazol-2-yl)-5-methyl-7-oxo-3-phenyl-4,7-dihydropyrazolo[1,5-a]pyrimidine-2-carbonitrile]
IC50 [1]: < 20 µM | IC50 [2]: > 100 µM

Cc1[nH]c2c(-c3ccccc3)c(C(F)(F)F)nn2c(=O)c1-c1ncc(C2CCCC2)o1 [Compound C1010, 6-(5-cyclopentyloxazol-2-yl)-5-methyl-3-phenyl-2-(trifluoromethyl)pyrazolo[1,5-a]pyrimidin-7(4H)-one]
IC50 [1]: > 250 µM | IC50 [2]: < 20 µM

COc1c(C)ccc2oc(-c3c(C)[nH]c4c(-c5ccccc5)c(C(F)(F)F)nn4c3=O)nc12 [Compound C1093, 6-(4-methoxy-5-methylbenzo[d]oxazol-2-yl)-5-methyl-3-phenyl-2-(trifluoromethyl)pyrazolo[1,5-a]pyrimidin-7(4H)-one]
IC50 [1]: < 20 µM | IC50 [2]: 20 to 100 µM

Cc1[nH]c2c(-c3ccccc3)c(C(F)(F)F)nn2c(=O)c1-c1nc(C(=O)O)co1 [Compound C1165, 2-(5-methyl-7-oxo-3-phenyl-2-(trifluoromethyl)-4,7-dihydropyrazolo[1,5-a]pyrimidin-6-yl)oxazole-4-carboxylic acid]
IC50 [1]: < 20 µM | IC50 [2]: > 100 µM

COc1cccc2oc(-c3c(C(=O)Nc4cn[nH]c4)[nH]c4c(-c5ccccc5)c(C(F)(F)F)nn4c3=O)nc12 [Compound C1244, 6-(4-methoxybenzo[d]oxazol-2-yl)-7-oxo-3-phenyl-N-(1H-pyrazol-4-yl)-2-(trifluoromethyl)-4,7-dihydropyrazolo[1,5-a]pyrimidine-5-carboxamide]
IC50 [1]: < 20 µM | IC50 [2]: < 20 µM

Cc1[nH]c2c(-c3ccccc3)c(C(F)(F)F)nn2c(=O)c1-c1nc2c(Br)cccc2o1 [Compound C1040, 6-(4-bromobenzo[d]oxazol-2-yl)-5-methyl-3-phenyl-2-(trifluoromethyl)pyrazolo[1,5-a]pyrimidin-7(4H)-one]
IC50 [1]: < 20 µM | IC50 [2]: < 20 µM

Cc1[nH]c2c(-c3ccccc3)c(C(F)(F)F)nn2c(=O)c1C(=O)Nc1ccccc1S(C)(=O)=O [Compound A1083, 5-methyl-N-(2-(methylsulfonyl)phenyl)-7-oxo-3-phenyl-2-(trifluoromethyl)-4,7-dihydropyrazolo[1,5-a]pyrimidine-6-carboxamide]
IC50 [1]: < 20 µM | IC50 [2]: > 100 µM

Cc1[nH]c2c(-c3ccccc3)c(C(F)(F)F)nn2c(=O)c1-c1nnc(C2(N)CCCC2)o1 [Compound D1062, 6-(5-(1-aminocyclopentyl)-1,3,4-oxadiazol-2-yl)-5-methyl-3-phenyl-2-(trifluoromethyl)pyrazolo[1,5-a]pyrimidin-7(4H)-one]
IC50 [1]: < 20 µM | IC50 [2]: > 100 µM

COc1cccc2oc(-c3c(C(=O)NC4CCOCC4)[nH]c4c(-c5ccccc5)c(C(F)(F)F)nn4c3=O)nc12 [Compound C1194, 6-(4-methoxybenzo[d]oxazol-2-yl)-7-oxo-3-phenyl-N-(tetrahydro-2H-pyran-4-yl)-2-(trifluoromethyl)-4,7-dihydropyrazolo[1,5-a]pyrimidine-5-carboxamide]
IC50 [1]: < 20 µM | IC50 [2]: > 100 µM

COC1CCCc2oc(-c3c(C)[nH]c4c(-c5ccccc5)c(C(F)(F)F)nn4c3=O)nc21 (stereo not shown) [Compound C1048, 6-(4-methoxy-4,5,6,7-tetrahydrobenzo[d]oxazol-2-yl)-5-methyl-3-phenyl-2-(trifluoromethyl)pyrazolo[1,5-a]pyrimidin-7(4H)-one]
IC50 [1]: < 20 µM | IC50 [2]: 20 to 100 µM

Cc1[nH]c2c(-c3ccccc3)c(C(F)(F)F)nn2c(=O)c1C(=O)Nc1cccc(C#N)c1 [Compound A1070, N-(3-cyanophenyl)-5-methyl-7-oxo-3-phenyl-2-(trifluoromethyl)-4,7-dihydropyrazolo[1,5-a]pyrimidine-6-carboxamide]
IC50 [1]: < 20 µM | IC50 [2]: < 20 µM

Cc1[nH]c2c(-c3ccccc3)c(C(F)(F)F)nn2c(=O)c1C(=O)Nc1cccc(S(C)(=O)=O)c1 [Compound A1084, 5-methyl-N-(3-(methylsulfonyl)phenyl)-7-oxo-3-phenyl-2-(trifluoromethyl)-4,7-dihydropyrazolo[1,5-a]pyrimidine-6-carboxamide]
IC50 [1]: < 20 µM | IC50 [2]: 20 to 100 µM

COc1cccc2oc(-c3c(CN(C)C)[nH]c4c(-c5ccccc5)c(C(F)(F)F)nn4c3=O)nc12 [Compound C1109, 5-((dimethylamino)methyl)-6-(4-methoxybenzo[d]oxazol-2-yl)-3-phenyl-2-(trifluoromethyl)pyrazolo[1,5-a]pyrimidin-7(4H)-one]
IC50 [1]: < 20 µM | IC50 [2]: > 100 µM
